{
  "source": "ChEMBL document CHEMBL4311992",
  "about": "“Discovery of 3-(((9H-purin-6-yl)amino)methyl)-4,6-dimethylpyridin-2(1H)-one derivatives as novel tubulin polymerization inhibitors for treatment of cancer” (Eur J Med Chem, 2019)",
  "key": {"A549": {"tested_on": "A549", "assay": "Antiproliferative activity against human A549 cells assessed as reduction in cell viability after 72 hrs by MTT assay", "type": "functional, cell-based", "conditions": "A549, 72 h"}, "MDA-MB-231": {"tested_on": "MDA-MB-231", "assay": "Antiproliferative activity against human MDA-MB-231 cells assessed as reduction in cell viability after 72 hrs by MTT assay", "type": "functional, cell-based", "conditions": "MDA-MB-231, 72 h"}, "[1]": {"molecular_target": "BDNF/NT-3 growth factors receptor (Homo sapiens) (UniProt Q16620)", "assay": "Inhibition of human TrkB (455 to end residues) using poly(Glu, Tyr) 4:1 as substrate measured after 40 mins in presence of [gamma33P]ATP by scintillation counting method", "design": "scale not given: the % may be the effect or the level left"}, "[2]": {"molecular_target": "Serine/threonine-protein kinase Sgk3 (Homo sapiens) (UniProt Q96BR1)", "assay": "Inhibition of human SGK3 (119 to end residues) using GRPRTSSFAEGKK as substrate measured after 40 mins in presence of [gamma33P]ATP by scintillation counting method", "design": "scale not given: the % may be the effect or the level left"}, "[3]": {"molecular_target": "Serine/threonine-protein kinase PLK1 (Homo sapiens) (UniProt P53350)", "sequence (P53350 whole entry)": "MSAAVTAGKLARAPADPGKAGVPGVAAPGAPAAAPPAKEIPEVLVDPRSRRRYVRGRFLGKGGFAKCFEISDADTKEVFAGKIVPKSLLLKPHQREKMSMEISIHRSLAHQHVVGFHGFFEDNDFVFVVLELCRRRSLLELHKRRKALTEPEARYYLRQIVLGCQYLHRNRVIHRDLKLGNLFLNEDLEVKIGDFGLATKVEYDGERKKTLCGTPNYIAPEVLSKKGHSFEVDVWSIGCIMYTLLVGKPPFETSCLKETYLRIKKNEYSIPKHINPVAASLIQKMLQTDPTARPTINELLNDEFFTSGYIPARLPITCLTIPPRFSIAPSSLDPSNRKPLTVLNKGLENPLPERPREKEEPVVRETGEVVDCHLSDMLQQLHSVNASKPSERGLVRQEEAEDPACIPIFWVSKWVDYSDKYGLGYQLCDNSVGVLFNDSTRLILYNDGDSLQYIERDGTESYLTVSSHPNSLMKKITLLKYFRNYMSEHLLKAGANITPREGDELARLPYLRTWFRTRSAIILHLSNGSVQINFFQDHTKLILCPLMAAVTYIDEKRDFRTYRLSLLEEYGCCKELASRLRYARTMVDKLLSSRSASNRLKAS", "assay": "Inhibition of recombinant full-length human Plk1 assessed as residual activity at 10 uM using casein as substrate measured after 40 mins in presence of [gamma33P]ATP by scintillation counting method"}, "[4]": {"molecular_target": "Protein kinase C alpha type (Homo sapiens) (UniProt P17252)", "assay": "Inhibition of recombinant full-length human PKCalpha assessed as residual activity at 10 uM using histone H1 as substrate measured after 40 mins in presence of [gamma33P]ATP by scintillation counting method"}, "[5]": {"tested_on": "RAC-gamma serine/threonine-protein kinase (Homo sapiens), Q9Y243 [S472D]", "assay": "Inhibition of recombinant full-length human PKBgamma S472D mutant (117 to end residues) assessed as residual activity at 10 uM using GRPRTSSFAEGKK as substrate measured after 40 mins in presence of [gamma33P]ATP by scintillation counting method"}, "Homo sapiens": {"species": "Homo sapiens", "assay": "Inhibition of recombinant human Mer H628Q/R794A mutant (557 to 882 residues) assessed as residual activity at 10 uM using GGMEDIYFEFMGGKKK as substrate measured after 40 mins in presence of [gamma33P]ATP by scintillation counting method"}, "[6]": {"molecular_target": "Tyrosine-protein kinase JAK1 (Homo sapiens) (UniProt P23458)", "sequence (P23458 whole entry)": "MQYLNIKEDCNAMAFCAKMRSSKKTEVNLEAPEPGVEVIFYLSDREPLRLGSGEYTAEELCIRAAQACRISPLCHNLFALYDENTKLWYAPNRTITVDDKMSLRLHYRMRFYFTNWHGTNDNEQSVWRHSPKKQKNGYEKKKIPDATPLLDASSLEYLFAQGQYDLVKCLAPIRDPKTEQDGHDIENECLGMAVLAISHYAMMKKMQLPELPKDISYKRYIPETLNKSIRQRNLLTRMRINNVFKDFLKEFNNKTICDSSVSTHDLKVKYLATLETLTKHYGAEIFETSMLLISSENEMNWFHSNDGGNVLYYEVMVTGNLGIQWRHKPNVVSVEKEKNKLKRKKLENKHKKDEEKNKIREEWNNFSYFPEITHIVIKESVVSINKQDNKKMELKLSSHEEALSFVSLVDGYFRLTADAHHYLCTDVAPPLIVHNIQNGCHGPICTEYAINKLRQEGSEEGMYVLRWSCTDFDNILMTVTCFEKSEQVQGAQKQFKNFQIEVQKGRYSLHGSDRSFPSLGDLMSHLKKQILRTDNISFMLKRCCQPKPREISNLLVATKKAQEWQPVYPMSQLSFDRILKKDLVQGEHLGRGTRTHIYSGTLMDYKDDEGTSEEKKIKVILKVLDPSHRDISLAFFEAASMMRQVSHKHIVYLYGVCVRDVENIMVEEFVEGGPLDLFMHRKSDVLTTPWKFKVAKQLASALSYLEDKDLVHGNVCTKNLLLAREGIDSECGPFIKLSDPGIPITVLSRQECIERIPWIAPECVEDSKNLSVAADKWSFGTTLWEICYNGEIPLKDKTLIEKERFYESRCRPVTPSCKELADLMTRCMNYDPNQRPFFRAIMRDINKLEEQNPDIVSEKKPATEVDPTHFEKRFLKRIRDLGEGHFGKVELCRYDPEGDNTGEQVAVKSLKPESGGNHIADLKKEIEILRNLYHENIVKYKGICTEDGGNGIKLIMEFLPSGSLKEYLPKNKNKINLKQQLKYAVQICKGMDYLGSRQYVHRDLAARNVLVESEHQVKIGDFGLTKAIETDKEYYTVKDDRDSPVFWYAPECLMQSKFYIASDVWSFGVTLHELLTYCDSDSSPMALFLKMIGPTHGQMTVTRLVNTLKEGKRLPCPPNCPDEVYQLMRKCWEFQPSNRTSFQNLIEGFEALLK", "assay": "Inhibition of recombinant human JAK1 (866 to end residues) assessed as residual activity at 10 uM using GEEPLYWSFPAKKK as substrate measured after 40 mins in presence of [gamma33P]ATP by scintillation counting method"}, "[7]": {"molecular_target": "NUAK family SNF1-like kinase 1 (Homo sapiens) (UniProt O60285)", "assay": "Inhibition of recombinant human ARK5 (2 to end residues) assessed as residual activity at 10 uM using KKKVSRSGLYRSPSMPENLNRPR as substrate measured after 40 mins in presence of [gamma33P]ATP by scintillation counting method"}, "[8]": {"molecular_target": "Bone morphogenetic protein receptor type-2 (Homo sapiens) (UniProt Q13873)", "assay": "Inhibition of recombinant human BMPR2 (172 to 734 residues) assessed as residual activity at 10 uM using myelin basic protein as substrate measured after 120 mins in presence of [gamma33P]ATP by scintillation counting method"}, "[9]": {"molecular_target": "Vascular endothelial growth factor receptor 1 (Homo sapiens) (UniProt P17948)", "assay": "Inhibition of recombinant human Flt1 (783 to end residues) assessed as residual activity at 10 uM using KKKSPGEYVNIEFG as substrate measured after 40 mins in presence of [gamma33P]ATP by scintillation counting method"}, "[10]": {"molecular_target": "ALK tyrosine kinase receptor (Homo sapiens) (UniProt Q9UM73)", "assay": "Inhibition of recombinant human ALK (1058 to end residues) assessed as residual activity at 10 uM using KKKSPGEYVNIEF as substrate measured after 40 mins in presence of [gamma33P]ATP by scintillation counting method"}, "[11]": {"molecular_target": "AP2-associated protein kinase 1 (Homo sapiens) (UniProt Q2M2I8)", "assay": "Inhibition of human AAK1 assessed as residual activity at 10 uM using peptide substrate measured after 120 mins in presence of [gamma33P]ATP by scintillation counting method"}, "[12]": {"molecular_target": "Casein kinase I isoform gamma-2 (Homo sapiens) (UniProt P78368)", "sequence (P78368 whole entry, looked up, canonical isoform)": "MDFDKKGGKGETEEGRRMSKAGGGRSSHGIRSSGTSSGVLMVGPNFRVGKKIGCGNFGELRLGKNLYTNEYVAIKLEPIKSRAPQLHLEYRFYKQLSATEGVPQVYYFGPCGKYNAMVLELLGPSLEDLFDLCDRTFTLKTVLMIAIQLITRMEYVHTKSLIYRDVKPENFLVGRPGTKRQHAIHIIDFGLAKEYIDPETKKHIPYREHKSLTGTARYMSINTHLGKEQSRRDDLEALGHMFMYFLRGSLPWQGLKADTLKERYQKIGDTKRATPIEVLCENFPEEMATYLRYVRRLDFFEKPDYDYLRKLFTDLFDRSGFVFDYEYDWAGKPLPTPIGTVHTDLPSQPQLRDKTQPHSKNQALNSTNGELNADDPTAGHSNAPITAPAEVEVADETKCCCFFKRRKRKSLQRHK", "assay": "Inhibition of recombinant human CK1gamma2 (18 to end residues) assessed as residual activity at 10 uM using KRRRALS(p)VASLPGL as substrate measured after 40 mins in presence of [gamma33P]ATP by scintillation counting method"}, "[13]": {"molecular_target": "Myotonin-protein kinase (Homo sapiens) (UniProt Q09013)", "sequence (Q09013 whole entry, the tested form may be a part)": "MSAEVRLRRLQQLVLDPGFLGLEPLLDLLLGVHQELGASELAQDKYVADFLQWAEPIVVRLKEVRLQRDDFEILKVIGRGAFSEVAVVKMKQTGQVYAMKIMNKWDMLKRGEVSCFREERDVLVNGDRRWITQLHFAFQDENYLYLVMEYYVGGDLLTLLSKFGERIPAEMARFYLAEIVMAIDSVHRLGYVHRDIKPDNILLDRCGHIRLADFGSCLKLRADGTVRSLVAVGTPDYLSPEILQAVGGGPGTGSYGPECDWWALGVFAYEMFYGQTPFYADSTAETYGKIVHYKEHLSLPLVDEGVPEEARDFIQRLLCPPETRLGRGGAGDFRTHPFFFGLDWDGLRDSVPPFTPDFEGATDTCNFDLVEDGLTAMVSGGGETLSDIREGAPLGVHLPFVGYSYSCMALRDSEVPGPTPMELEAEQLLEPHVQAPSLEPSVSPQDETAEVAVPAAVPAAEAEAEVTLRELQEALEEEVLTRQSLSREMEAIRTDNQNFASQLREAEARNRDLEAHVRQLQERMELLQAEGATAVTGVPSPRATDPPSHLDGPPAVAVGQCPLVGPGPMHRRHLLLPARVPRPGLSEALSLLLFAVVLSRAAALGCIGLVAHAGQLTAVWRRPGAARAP", "assay": "Inhibition of recombinant human DMPK (1 to 549 residues) assessed as residual activity at 10 uM using KKSRGDYMTMQIG as substrate measured after 40 mins in presence of [gamma33P]ATP by scintillation counting method"}, "[14]": {"tested_on": "Eukaryotic elongation factor 2 kinase (Homo sapiens), O00418 [H23R]", "sequence (O00418 whole entry H23R)": "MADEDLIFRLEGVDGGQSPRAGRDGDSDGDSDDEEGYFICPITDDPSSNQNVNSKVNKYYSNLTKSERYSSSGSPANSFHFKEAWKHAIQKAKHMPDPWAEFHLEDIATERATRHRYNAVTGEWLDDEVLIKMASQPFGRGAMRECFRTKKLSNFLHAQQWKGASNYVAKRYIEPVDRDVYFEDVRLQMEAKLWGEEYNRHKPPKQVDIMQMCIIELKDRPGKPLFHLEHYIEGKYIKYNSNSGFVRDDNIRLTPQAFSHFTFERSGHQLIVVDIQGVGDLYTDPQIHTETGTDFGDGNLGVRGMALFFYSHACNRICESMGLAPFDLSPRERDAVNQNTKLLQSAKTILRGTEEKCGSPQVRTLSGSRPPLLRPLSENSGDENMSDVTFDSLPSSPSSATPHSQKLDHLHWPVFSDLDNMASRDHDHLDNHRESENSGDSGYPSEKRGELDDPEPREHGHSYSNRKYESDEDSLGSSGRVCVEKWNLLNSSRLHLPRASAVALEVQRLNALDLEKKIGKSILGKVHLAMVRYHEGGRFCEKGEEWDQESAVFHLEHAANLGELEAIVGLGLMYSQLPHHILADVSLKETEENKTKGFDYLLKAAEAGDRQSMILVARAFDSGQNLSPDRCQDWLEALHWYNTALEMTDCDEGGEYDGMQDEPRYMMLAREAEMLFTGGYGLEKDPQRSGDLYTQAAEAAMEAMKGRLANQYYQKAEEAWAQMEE", "assay": "Inhibition of recombinant human EEF2K H23R mutant (2 to end residues) assessed as residual activity at 10 uM using RKKFGESEKTKTKEFL as substrate measured after 40 mins in presence of [gamma33P]ATP by scintillation counting method"}, "[15]": {"molecular_target": "Mitogen-activated protein kinase 1 (Homo sapiens) (UniProt P28482)", "assay": "Inhibition of human MAPK2 assessed as residual activity at 10 uM"}, "[16]": {"molecular_target": "SRSF protein kinase 3 (Homo sapiens) (UniProt Q9UPE1)", "sequence (Q9UPE1 whole entry)": "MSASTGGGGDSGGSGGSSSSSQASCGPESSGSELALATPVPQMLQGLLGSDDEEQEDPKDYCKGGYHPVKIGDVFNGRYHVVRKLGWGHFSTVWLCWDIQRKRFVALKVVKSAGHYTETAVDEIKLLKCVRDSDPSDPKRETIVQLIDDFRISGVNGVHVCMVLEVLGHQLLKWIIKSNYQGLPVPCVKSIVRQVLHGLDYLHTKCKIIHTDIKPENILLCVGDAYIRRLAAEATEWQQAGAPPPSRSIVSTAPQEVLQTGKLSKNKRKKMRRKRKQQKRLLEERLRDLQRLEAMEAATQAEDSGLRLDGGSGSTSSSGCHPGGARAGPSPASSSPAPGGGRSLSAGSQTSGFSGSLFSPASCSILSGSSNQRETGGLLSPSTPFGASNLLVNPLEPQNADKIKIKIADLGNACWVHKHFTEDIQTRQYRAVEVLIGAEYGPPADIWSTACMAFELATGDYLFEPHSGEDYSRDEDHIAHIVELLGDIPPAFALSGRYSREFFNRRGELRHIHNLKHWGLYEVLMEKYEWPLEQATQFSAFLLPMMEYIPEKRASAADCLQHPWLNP", "assay": "Inhibition of recombinant full-length human MSSK1 assessed as residual activity at 10 uM using ERMRPRKRQGSVRRRV as substrate measured after 40 mins in presence of [gamma33P]ATP by scintillation counting method"}, "[17]": {"molecular_target": "Serine/threonine-protein kinase N2 (Homo sapiens) (UniProt Q16513)", "assay": "Inhibition of human PRK2 (501 to end residues) using AKRRRLSSLRA as substrate measured after 40 mins in presence of [gamma33P]ATP by scintillation counting method", "design": "scale not given: the % may be the effect or the level left"}, "[18]": {"molecular_target": "Wee1-like protein kinase (Homo sapiens) (UniProt P30291)", "sequence (P30291 whole entry, looked up)": "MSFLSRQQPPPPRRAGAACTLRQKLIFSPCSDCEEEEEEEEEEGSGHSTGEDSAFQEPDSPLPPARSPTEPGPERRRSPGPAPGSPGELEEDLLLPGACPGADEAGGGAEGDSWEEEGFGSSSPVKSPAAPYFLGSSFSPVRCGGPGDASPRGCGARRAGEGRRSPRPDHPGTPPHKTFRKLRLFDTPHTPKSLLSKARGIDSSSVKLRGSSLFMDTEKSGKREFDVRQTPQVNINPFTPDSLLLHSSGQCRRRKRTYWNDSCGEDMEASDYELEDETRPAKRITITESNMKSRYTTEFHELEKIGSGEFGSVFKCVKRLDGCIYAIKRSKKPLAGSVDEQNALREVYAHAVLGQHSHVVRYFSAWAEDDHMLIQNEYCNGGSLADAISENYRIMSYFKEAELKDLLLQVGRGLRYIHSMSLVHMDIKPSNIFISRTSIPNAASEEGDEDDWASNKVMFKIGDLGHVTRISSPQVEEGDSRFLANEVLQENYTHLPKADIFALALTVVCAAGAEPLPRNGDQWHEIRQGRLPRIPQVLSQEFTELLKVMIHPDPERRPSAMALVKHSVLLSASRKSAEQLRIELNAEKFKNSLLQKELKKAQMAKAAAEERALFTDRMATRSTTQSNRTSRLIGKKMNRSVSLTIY", "assay": "Inhibition of human Wee1 (214 to end residues) using LSNLYHQGKFLQTFCGSPLYRRR as substrate measured after 40 mins in presence of [gamma33P]ATP by scintillation counting method", "design": "scale not given: the % may be the effect or the level left"}, "[19]": {"assay": "Toxicity in nude BALB/c mouse assessed as change in RBC level at 40 to 80 mg/kg, po once daily for 4 weeks measured post-last dose", "type": "organism-based", "conditions": "in vivo, 672 h"}, "SW-620": {"tested_on": "SW-620", "assay": "Induction of apoptosis in human SW620 cells assessed as necrotic cells at 100 nM measured after 48 hrs by Annexin V-FITC/propidium iodide staining-based flow cytometry (reference value: 2.71%)", "type": "functional"}, "HCT-116": {"tested_on": "HCT-116", "assay": "Induction of apoptosis in human HCT116 cells assessed as late apoptotic cells at 100 nM measured after 48 hrs by Annexin V-FITC/propidium iodide staining-based flow cytometry (reference value: 3.87%)", "type": "functional"}, "Tubulin (Sus scrofa)": {"molecular_target": "Tubulin (Sus scrofa) (UniProt P02554+P02550)", "assay": "Inhibition of porcine brain tubulin polymerization at 0.05 to 30 uM by fluorescence assay"}},
  "note": "Active and inactive are the calls of the source. The rule behind the calls is not given here.",
  "data": [
    {"smiles": "Cc1cc(C)c(CNc2nc(Cl)nc3c2ncn3C2CCCC2)c(=O)[nH]1", "values": [
      {"measurement": "IC50", "setting": "A549", "value": 98, "unit": "nM"},
      {"measurement": "IC50", "setting": "MDA-MB-231", "value": 200, "unit": "nM"},
      {"measurement": "Activity", "setting": "[1]", "value": 126, "unit": "%"},
      {"measurement": "Activity", "setting": "[2]", "value": 102, "unit": "%"},
      {"measurement": "Activity", "setting": "[3]", "value": 112, "unit": "%"},
      {"measurement": "Activity", "setting": "[4]", "value": 88.5, "unit": "%"},
      {"measurement": "Activity", "setting": "[5]", "value": 91, "unit": "%"},
      {"measurement": "Activity", "setting": "Homo sapiens", "value": 109, "unit": "%"},
      {"measurement": "Activity", "setting": "[6]", "value": 97.5, "unit": "%"},
      {"measurement": "Activity", "setting": "[7]", "value": 108, "unit": "%"},
      {"measurement": "Activity", "setting": "[8]", "value": 109, "unit": "%"},
      {"measurement": "Activity", "setting": "[9]", "value": 97.5, "unit": "%"},
      {"measurement": "Activity", "setting": "[10]", "value": 112, "unit": "%"},
      {"measurement": "Activity", "setting": "[11]", "value": 105, "unit": "%"},
      {"measurement": "Activity", "setting": "[12]", "value": 104, "unit": "%"},
      {"measurement": "Activity", "setting": "[13]", "value": 104, "unit": "%"},
      {"measurement": "Activity", "setting": "[14]", "value": 104, "unit": "%"},
      {"measurement": "Activity", "setting": "[15]", "value": 104, "unit": "%"},
      {"measurement": "Activity", "setting": "[16]", "value": 130, "unit": "%"},
      {"measurement": "Activity", "setting": "[17]", "value": 116, "unit": "%"},
      {"measurement": "Activity", "setting": "[18]", "value": 84.5, "unit": "%"},
      {"measurement": "Activity", "setting": "[19]", "value": "Non-Toxic"},
      {"measurement": "Activity", "setting": "SW-620", "value": 6.55, "unit": "%"},
      {"measurement": "Activity", "setting": "HCT-116", "value": 42.6, "unit": "%"},
      {"measurement": "inhibition", "setting": "Tubulin (Sus scrofa)", "value": "Active"}
    ]}
  ]
}
